Experiments:
isolated rat atria = assay: Bioassay for positive inotropic effect on isolated rat atria; assay type: cell-based
Source text: The sea anemones are homogenized and extracted with water or with a solution of water and a water miscible organic solvent. The crude extract, containing anthopleurin-B, is subjected to gel filtration to give a forty-fold increase in purity of anthopleurin-B. Alternatively, semipermeable membranes may be used to accomplish the results obtained by gel filtration. Cation exchange chromatography provides an excellent separation of anthopleurin-B in a purity of about 30-40% depending on the particular collection of anemones. […] To obtain analytically pure salt-free material the above material is further purified by gel filtration, cation-exchange chromatography and gel adsorption chromatography. All the separation procedures in the present invention are monitored by bioassay using the isolated rat atria for determination of positive inotropic effect using the procedure described in the section headed Bioassay.
Bioassays of the solutions containing anthopleurin-B are performed on isolated atria of rat hearts. […]
The spontaneously beating atrial preparation is connected by a thin silk thread to a force-displacement transducer (Grass Model FT.03), and the contractile movements are recorded on a six-channel polygraph Grass Model 7. […]

[1] = Solubility in deionized water; assay type: physicochemical
Isoelectric focusing = assay type: physicochemical
Source text: For the purpose of obtaining electrophoretic and amino acid analysis the anthopleurin-B obtained in Example 1, below, was rechromatographed on CM Sephadex C-25, Sephadex G-50 and G-10 according to the process set forth in Example 1, Steps c, d and e, respectively. The doubly purified material was subject to electrophoretic analysis using commercially available pre-cast 12% acrylamide gels and matched buffer systems obtained from Bio.Rad Laboratories, 32nd and Griffin, Richmond, California.
Isoelectric focusing gave the isoelectric point at a pH=9.05. Disc gel electrophoresis with 12% polyacrylamide gel at pH 3.6 gave an Rf value of 0.64 versus methyl green tracking dye. […] Sodium dodecyl sulfate (SDS) disc gel electrophoresis using a 10% gel indicated a m.w. of about 5,200 after incubation with dithioerythritol, using RNase A and pancreatic trypsin inhibitor (PTI) for comparison. The molecular weight is so low that these values are only approximate. […] Acid hydrolysis indicated the approximate following amino acid composition: (Asp or Asn)5, Thr1 Ser4, (Glu or Gln)1, Pro5, Gly7, Ala2, (Cys/2)6 Val1, Ile2, Leu2, Tyr1, Phe1, Lys3, His2, Arg2, Trp2.

Stability (pH, storage) = assay type: physicochemical

anthopleurin-B [AP-B]
potency in positive inotropic effect relative to ouabain (isolated rat atria; as potent as ouabain): 200-1000 x
chronotropic effect (isolated rat atria; isolated rat atria, beat rate): does not show any chronotropic effect
solubility [1]: very soluble
isoelectric point (Isoelectric focusing): 9.05 pH
storage stability (Stability (pH, storage); -20° C. for a year, as lyophilized fraction C or fraction G): no signs of deterioration
stability versus pH (Stability (pH, storage); neutral and lower pH values): relatively stable
stability of dry form (Stability (pH, storage); sterile powdered lyophilized, room temperature): stable at room temperature
